Results as given in paper PMC4820820, “CETSA screening identifies known and novel thymidylate synthase inhibitors and slow intracellular activation of 5-fluorouracil” (Nature Communications, 2016).

Molecular target: TS (Homo sapiens, UniProt P04818)
Assay: Western blot ITDRF CETSA of decitabine with or without DCK inhibitor DI-82, K562 cells
Type: cell-based
Parameters: screening in live, non-engineered cells expressing thymidylate synthase; endogenous in cells; host or cells: K562 (human myelogenous leukemia) cells
Protocol: K562 cells were treated with each respective compound concentrations and one vehicle as control in 100 μl aliquots in 0.2 ml tubes for 2 h in an incubator at 37 °C and 5% CO2. The cell aliquots were heated at 50 °C and analyzed with western blot following the procedure described above.
For the decitabine metabolism, decitabine was serially diluted to generate an 11 point dose–response curve and an […] experiment was performed as described above in absence and presence of 200 μM of the DCK inhibitor DI-82 (referred to as 12R in the main text of the original publication and DI-82 in the Supplementary Material)[34].
NuPage Novex Bis-Tris 4–12% polyacrylamide gels with NuPAGE MES SDS running buffer (Life Technologies) were used for separation of proteins in the samples. Proteins were transferred to nitrocellulose membranes using the iBlot2 blotting system (Life Technologies). Primary antibodies anti-TS (D5B3) XP (Cell Signaling), anti-dCK (sc-393099), anti-β-actin (sc-69879); secondary goat anti-mouse HRP-IgG (sc-2055) and bovine anti-rabbit HRP-IgG (sc-2374) antibodies (Santa Cruz Biotechnology, Santa Cruz, CA, USA) were used for immunoblotting. […] Chemiluminescence intensities were detected and quantified using a ChemiDoc XRS+ imaging system (Bio-Rad) with Image Lab software (Bio-Rad).

TS, sequence (P04818 2-313 limits assumed): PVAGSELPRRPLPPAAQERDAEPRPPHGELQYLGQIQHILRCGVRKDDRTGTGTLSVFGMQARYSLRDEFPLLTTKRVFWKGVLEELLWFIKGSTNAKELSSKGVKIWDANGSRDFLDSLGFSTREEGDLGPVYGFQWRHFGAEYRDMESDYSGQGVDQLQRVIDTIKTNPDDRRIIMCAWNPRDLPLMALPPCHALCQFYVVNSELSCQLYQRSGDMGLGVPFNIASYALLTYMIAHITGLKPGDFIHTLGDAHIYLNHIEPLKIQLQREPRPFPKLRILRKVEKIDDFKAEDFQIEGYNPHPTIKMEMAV

## Nc1ncn([C@H]2C[C@H](O)[C@@H](CO)O2)c(=O)n1 [decitabine, 5-Aza-deoxycytidine]
In absence of DI-82, K562 cells
  stabilization of TS (ITDRFCETSA): Dose-dependent stabilization
In presence of 200 μM DI-82, K562 cells
  ability to bind TS (ITDRFCETSA): completely blunted
